Reference: ChEMBL document CHEMBL2439971, “Design, synthesis and antiproliferative evaluation of fluorenone analogs with DNA topoisomerase I inhibitory properties” (Bioorg Med Chem, 2013)
Calls of active or inactive are those of the source. The calls are words filed in the database; no cut-off is given here.

How the values were obtained:
[1] = species: Homo sapiens; assay: Inhibition of telomerase (unknown origin) at 10 uM TRAP assay
[2] = system: PC-3; assay: Cytotoxicity against human PC3 cells after 48 hrs by sulforhodamine B assay; type: functional, cell-based; conditions: PC-3, 48 h
[3] = system: SF-268; assay: Cytotoxicity against human SF268 cells at 10 uM after 48 hrs by sulforhodamine B assay relative to control; type: functional
[4] = system: SK-MEL-2; assay: Cytotoxicity against human SK-MEL-2 cells at 10 uM after 48 hrs by sulforhodamine B assay relative to control; type: functional
[5] = system: MCF7; assay: Cytotoxicity against human MCF7 cells at 10 uM after 48 hrs by sulforhodamine B assay relative to control; type: functional
[6] = system: ACHN; assay: Cytotoxicity against human ACHN cells at 10 uM after 48 hrs by sulforhodamine B assay relative to control; type: functional
[7] = system: SK-MEL-28; assay: Cytotoxicity against human SK-MEL-28 cells at 10 uM after 48 hrs by sulforhodamine B assay relative to control; type: functional
[8] = system: DU-145; assay: Cytotoxicity against human DU145 cells at 10 uM after 48 hrs by sulforhodamine B assay relative to control; type: functional
[9] = system: RXF 393; assay: Cytotoxicity against human RXF393 cells at 10 uM after 48 hrs by sulforhodamine B assay relative to control; type: functional
[10] = system: A549; assay: Cytotoxicity against human A549 cells at 10 uM after 48 hrs by sulforhodamine B assay relative to control; type: functional
[11] = system: Malme-3M; assay: Cytotoxicity against human MALME-3M cells at 10 uM after 48 hrs by sulforhodamine B assay relative to control; type: functional
[12] = system: SN12C; assay: Cytotoxicity against human SN12C cells at 10 uM after 48 hrs by sulforhodamine B assay relative to control; type: functional
[13] = system: MDA-MB-231; assay: Cytotoxicity against human MDA-MB-231 cells at 10 uM after 48 hrs by sulforhodamine B assay relative to control; type: functional
[14] = system: OVCAR-5; assay: Cytotoxicity against human OVCAR5 cells at 10 uM after 48 hrs by sulforhodamine B assay relative to control; type: functional
[15] = system: UO-31; assay: Cytotoxicity against human UO31 cells at 10 uM after 48 hrs by sulforhodamine B assay relative to control; type: functional
[16] = system: UACC-257; assay: Cytotoxicity against human UACC257 cells at 10 uM after 48 hrs by sulforhodamine B assay relative to control; type: functional
[17] = system: K562; assay: Cytotoxicity against human K562 cells at 10 uM after 48 hrs by sulforhodamine B assay relative to control; type: functional
[18] = system: SK-MEL-5; assay: Cytotoxicity against human SK-MEL-5 cells at 10 uM after 48 hrs by sulforhodamine B assay relative to control; type: functional
[19] = system: SF-539; assay: Cytotoxicity against human SF539 cells at 10 uM after 48 hrs by sulforhodamine B assay relative to control; type: functional
[20] = system: SW-620; assay: Cytotoxicity against human SW620 cells at 10 uM after 48 hrs by sulforhodamine B assay relative to control; type: functional
[21] = system: SNB-19; assay: Cytotoxicity against human SNB19 cells at 10 uM after 48 hrs by sulforhodamine B assay relative to control; type: functional
[22] = Cytotoxicity against human Hs 578T cells at 10 uM after 48 hrs by sulforhodamine B assay relative to control; type: functional
[23] = system: NCI-H522; assay: Cytotoxicity against human NCI-H522 cells at 10 uM after 48 hrs by sulforhodamine B assay relative to control; type: functional
[24] = system: OVCAR-8; assay: Cytotoxicity against human OVCAR8 cells at 10 uM after 48 hrs by sulforhodamine B assay relative to control; type: functional
[25] = system: BT-549; assay: Cytotoxicity against human BT549 cells at 10 uM after 48 hrs by sulforhodamine B assay relative to control; type: functional
[26] = system: SNB-75; assay: Cytotoxicity against human SNB75 cells at 10 uM after 48 hrs by sulforhodamine B assay relative to control; type: functional
[27] = system: NCI-H460; assay: Cytotoxicity against human NCI-H460 cells at 10 uM after 48 hrs by sulforhodamine B assay relative to control; type: functional
[28] = system: CCRF-CEM; assay: Cytotoxicity against human CCRF-CEM cells at 10 uM after 48 hrs by sulforhodamine B assay relative to control; type: functional
[29] = system: SR; assay: Cytotoxicity against human SR cells at 10 uM after 48 hrs by sulforhodamine B assay relative to control; type: functional
[30] = Cytotoxicity against human EKVX cells at 10 uM after 48 hrs by sulforhodamine B assay relative to control; type: functional
[31] = system: HOP-62; assay: Cytotoxicity against human HOP62 cells at 10 uM after 48 hrs by sulforhodamine B assay relative to control; type: functional
[32] = system: UACC-62; assay: Cytotoxicity against human UACC62 cells at 10 uM after 48 hrs by sulforhodamine B assay relative to control; type: functional
[33] = system: COLO 205; assay: Cytotoxicity against human COLO205 cells at 10 uM after 48 hrs by sulforhodamine B assay relative to control; type: functional
[34] = system: HCT-116; assay: Cytotoxicity against human HCT116 cells at 10 uM after 48 hrs by sulforhodamine B assay relative to control; type: functional
[35] = system: TK-10; assay: Cytotoxicity against human TK10 cells at 10 uM after 48 hrs by sulforhodamine B assay relative to control; type: functional
[36] = system: KM12; assay: Cytotoxicity against human KM12 cells at 10 uM after 48 hrs by sulforhodamine B assay relative to control; type: functional
[37] = system: U-251; assay: Cytotoxicity against human U251 cells at 10 uM after 48 hrs by sulforhodamine B assay relative to control; type: functional
[38] = system: RPMI-8226; assay: Cytotoxicity against human RPMI8226 cells at 10 uM after 48 hrs by sulforhodamine B assay relative to control; type: functional
[39] = system: 786-0; assay: Cytotoxicity against human 786-0 cells at 10 uM after 48 hrs by sulforhodamine B assay relative to control; type: functional
[40] = system: NCI-H226; assay: Cytotoxicity against human NCI-H226 cells at 10 uM after 48 hrs by sulforhodamine B assay relative to control; type: functional
[41] = system: IGROV-1; assay: Cytotoxicity against human IGROV1 cells at 10 uM after 48 hrs by sulforhodamine B assay relative to control; type: functional
[42] = system: HCC 2998; assay: Cytotoxicity against human HCC2998 cells at 10 uM after 48 hrs by sulforhodamine B assay relative to control; type: functional
[43] = system: LOX IMVI; assay: Cytotoxicity against human LOXIMVI cells at 10 uM after 48 hrs by sulforhodamine B assay relative to control; type: functional
[44] = system: OVCAR-4; assay: Cytotoxicity against human OVCAR4 cells at 10 uM after 48 hrs by sulforhodamine B assay relative to control; type: functional
[45] = system: M14; assay: Cytotoxicity against human M14 cells at 10 uM after 48 hrs by sulforhodamine B assay relative to control; type: functional
[46] = system: MDA-MB-468; assay: Cytotoxicity against human MDA-MB-468 cells at 10 uM after 48 hrs by sulforhodamine B assay relative to control; type: functional
[47] = system: PC-3; assay: Cytotoxicity against human PC3 cells at 10 uM after 48 hrs by sulforhodamine B assay relative to control; type: functional
[48] = system: T47D; assay: Cytotoxicity against human T47D cells at 10 uM after 48 hrs by sulforhodamine B assay relative to control; type: functional
[49] = system: HL-60(TB); assay: Cytotoxicity against human HL-60(TB) cells at 10 uM after 48 hrs by sulforhodamine B assay relative to control; type: functional
[50] = system: HT-29; assay: Cytotoxicity against human HT-29 cells at 10 uM after 48 hrs by sulforhodamine B assay relative to control; type: functional
[51] = system: MOLT-4; assay: Cytotoxicity against human MOLT4 cells at 10 uM after 48 hrs by sulforhodamine B assay relative to control; type: functional
[52] = system: NCI-H23; assay: Cytotoxicity against human NCI-H23 cells at 10 uM after 48 hrs by sulforhodamine B assay relative to control; type: functional
[53] = system: OVCAR-3; assay: Cytotoxicity against human OVCAR3 cells at 10 uM after 48 hrs by sulforhodamine B assay relative to control; type: functional
[54] = system: NCI/ADR-RES; assay: Cytotoxicity against human NCI/ADR-RES cells at 10 uM after 48 hrs by sulforhodamine B assay relative to control; type: functional
[55] = system: HCT-15; assay: Cytotoxicity against human HCT15 cells at 10 uM after 48 hrs by sulforhodamine B assay relative to control; type: functional

SMILES: CCCSCCC(=O)Nc1ccc2c(c1)C(=O)c1cc(NC(=O)CCSCCC)ccc1-2
- inhibition [1]: inactive
- IC50 [2]: > 30 µM

SMILES: O=C(CCN1CCCC1)Nc1ccc2c(c1)C(=O)c1cc(NC(=O)CCN3CCCC3)ccc1-2
- inhibition [1]: inactive
- IC50 [2]: 6.06 µM

SMILES: CCCCNCCC(=O)Nc1ccc2c(c1)C(=O)c1cc(NC(=O)CCNCCCC)ccc1-2
- inhibition [1]: inactive
- IC50 [2]: 26.9 µM

SMILES: CCCNCCC(=O)Nc1ccc2c(c1)C(=O)c1cc(NC(=O)CCNCCC)ccc1-2
- inhibition [1]: inactive
- IC50 [2]: 20.8 µM

SMILES: CC(C)SCCC(=O)Nc1ccc2c(c1)C(=O)c1cc(NC(=O)CCSC(C)C)ccc1-2
- inhibition [1]: inactive
- IC50 [2]: > 30 µM

SMILES: CC(C)SCC(=O)Nc1ccc2c(c1)C(=O)c1cc(NC(=O)CSC(C)C)ccc1-2
- inhibition [1]: inactive
- IC50 [2]: > 30 µM

SMILES: CCSCC(=O)Nc1ccc2c(c1)C(=O)c1cc(NC(=O)CSCC)ccc1-2
- inhibition [1]: inactive
- IC50 [2]: > 30 µM

SMILES: O=C(CCl)Nc1ccc2c(c1)C(=O)c1cc(NC(=O)CCl)ccc1-2
- inhibition [1]: inactive
- IC50 [2]: 0.55 µM

SMILES: O=C(CCN1CCCCC1)Nc1ccc2c(c1)C(=O)c1cc(NC(=O)CCN3CCCCC3)ccc1-2
- inhibition [1]: inactive
- IC50 [2]: 6.26 µM

SMILES: CC(C)NCCC(=O)Nc1ccc2c(c1)C(=O)c1cc(NC(=O)CCNC(C)C)ccc1-2
- inhibition [1]: inactive
- IC50 [2]: 10 µM

SMILES: O=C1c2cc([N+](=O)[O-])ccc2-c2ccc([N+](=O)[O-])cc21
- inhibition [1]: inactive
- IC50 [2]: > 30 µM

SMILES: O=C(CSCCO)Nc1ccc2c(c1)C(=O)c1cc(NC(=O)CSCCO)ccc1-2
- inhibition [1]: inactive
- IC50 [2]: > 30 µM

SMILES: Nc1ccc2c(c1)C(=O)c1cc(N)ccc1-2
- inhibition [1]: inactive
- IC50 [2]: > 30 µM

SMILES: O=C(CN1CCCCC1)Nc1ccc2c(c1)C(=O)c1cc(NC(=O)CN3CCCCC3)ccc1-2
- inhibition [1]: inactive
- IC50 [2]: > 30 µM

SMILES: CN1CCN(CCC(=O)Nc2ccc3c(c2)C(=O)c2cc(NC(=O)CCN4CCN(C)CC4)ccc2-3)CC1
- Activity [3]: 109.98%
- Activity [4]: 109.38%
- Activity [5]: 95.72%
- Activity [6]: 100.97%
- Activity [7]: 96.67%
- Activity [8]: 112.6%
- Activity [9]: 97.03%
- inhibition [1]: inactive
- Activity [10]: 106.9%
- Activity [11]: 98.05%
- Activity [12]: 102.94%
- Activity [13]: 115.67%
- Activity [14]: 104.62%
- Activity [15]: 89.26%
- Activity [16]: 103.02%
- Activity [17]: 99.19%
- Activity [18]: 107.35%
- Activity [19]: 111.08%
- Activity [20]: 105.36%
- Activity [21]: 105.99%
- Activity [22]: 102.5%
- Activity [23]: 86.63%
- Activity [24]: 101.48%
- Activity [25]: 107.82%
- Activity [26]: 77.89%
- IC50 [2]: > 30 µM
- Activity [27]: 107.13%
- Activity [28]: 97.76%
- Activity [29]: 92.06%
- Activity [30]: 111.18%
- Activity [31]: 109.22%
- Activity [32]: 104.21%
- Activity [33]: 108.32%
- Activity [34]: 100.16%
- Activity [35]: 99.67%
- Activity [36]: 111.12%
- Activity [37]: 100.29%
- Activity [38]: 106.48%
- Activity [39]: 100.57%
- Activity [40]: 98.16%
- Activity [41]: 102.45%
- Activity [42]: 99.57%
- Activity [43]: 96.43%
- Activity [44]: 99.91%
- Activity [45]: 105.74%
- Activity [46]: 88.91%
- Activity [47]: 104.35%
- Activity [48]: 102.07%
- Activity [49]: 103.58%
- Activity [50]: 101.23%
- Activity [51]: 94.59%
- Activity [52]: 96.83%
- Activity [53]: 116.35%
- Activity [54]: 103.89%
- Activity [55]: 101.35%

SMILES: O=C(CCCl)Nc1ccc2c(c1)C(=O)c1cc(NC(=O)CCCl)ccc1-2
- inhibition [1]: inactive
- IC50 [2]: > 30 µM

SMILES: CC(C)NCC(=O)Nc1ccc2c(c1)C(=O)c1cc(NC(=O)CNC(C)C)ccc1-2
- inhibition [1]: inactive
- IC50 [2]: 6.19 µM

SMILES: O=C(CN1CCOCC1)Nc1ccc2c(c1)C(=O)c1cc(NC(=O)CN3CCOCC3)ccc1-2
- inhibition [1]: inactive
- IC50 [2]: > 30 µM

SMILES: O=C(CCNCCO)Nc1ccc2c(c1)C(=O)c1cc(NC(=O)CCNCCO)ccc1-2
- inhibition [1]: inactive
- IC50 [2]: 19.2 µM

SMILES: O=C(CNCCO)Nc1ccc2c(c1)C(=O)c1cc(NC(=O)CNCCO)ccc1-2
- inhibition [1]: inactive
- IC50 [2]: > 30 µM

SMILES: CC(C)CNCC(=O)Nc1ccc2c(c1)C(=O)c1cc(NC(=O)CNCC(C)C)ccc1-2
- inhibition [1]: inactive
- IC50 [2]: > 30 µM
